From article PMC6274539, “Photoactivatable Caged Prodrugs of VEGFR-2 Kinase Inhibitors” (Molecules, 2016)
Entries after “also recorded” stand apart in the source; their conditions may differ. Where two headings read alike, the source gives them in different places.

Experiments:
PC-3 cells [1] = test: cellular growth (proliferation) assay, resazurin; format: cell-based; conditions: for antiproliferative effect after UV irradiation: 365 nm, 1.1 kW/m^2, 48 h; for TGI (total growth inhibition) mark: without UV irradiation
Procedure: Growth assays on VEGFR-2 dependent PC-3 cells were performed.
PC-3 cells were purchased from CLS Cell Lines Service GmbH (Eppelheim, Germany). The cells were grown in DMEM:Hams F12 (1:1) medium with 5% FCS. PC-3 cells were incubated in a 5% CO2 humidified atmosphere at 37 °C.
The cells were grown in cell flasks until approximately 90% confluence and then seeded to give 13000 cells in 100 μL per well into 96-well CulturePlates™ (Perkin Elmer). In addition to the test plates, one plate was prepared for reference measurement at day zero. All plates were incubated for 24 h at 37 °C in a humidified atmosphere with 5% CO2. Compounds 1, 3, 4, and 5 were dissolved in 100% DMSO (v/v) and added to the test plates. The final DMSO concentration in the assay was 0.5% (v/v). Viability of the cells in the day zero control plates were determined on the same day without adding any compounds. For viability measurement the resazurin assay was used. The shift in the fluorescence signal was measured at the LS55 Fluorescence spectrometer (Perkin Elmer). For the photoactivation experiments the test plates were irradiated at 365 nm for 5 min (LED source: 8× Nichia NCSU033B, Sahlmann Photochemical Solutions, 50%, 1.1 kW/m^2). Test plates were incubated for further 48 h and cell viability was defined as described above. Measured raw data was converted into percent of cell growth by using the high control (0.5% DMSO (v/v) without compound) and the day zero control. For dose-response studies, 11 different concentrations of compounds were tested in duplicates. IC50 values were calculated using the 4-parameter logarithmic fit option of GraphPad Prism 5.

VEGFR-2 = target: T1, VEGFR-2 (Homo sapiens, UniProt P35968); test: radiometric 33PanQinase VEGFR-2 kinase assay (ProQinase); format: biochemical; conditions: 10 semi-log concentrations, single samples, 1% DMSO
T1 construct: determined using VEGFR-2 protein kinase by a radiometric ^33PanQinase® assay; purchased ProQinase (Freiburg, Germany)
T1 sequence (P35968 20-1356): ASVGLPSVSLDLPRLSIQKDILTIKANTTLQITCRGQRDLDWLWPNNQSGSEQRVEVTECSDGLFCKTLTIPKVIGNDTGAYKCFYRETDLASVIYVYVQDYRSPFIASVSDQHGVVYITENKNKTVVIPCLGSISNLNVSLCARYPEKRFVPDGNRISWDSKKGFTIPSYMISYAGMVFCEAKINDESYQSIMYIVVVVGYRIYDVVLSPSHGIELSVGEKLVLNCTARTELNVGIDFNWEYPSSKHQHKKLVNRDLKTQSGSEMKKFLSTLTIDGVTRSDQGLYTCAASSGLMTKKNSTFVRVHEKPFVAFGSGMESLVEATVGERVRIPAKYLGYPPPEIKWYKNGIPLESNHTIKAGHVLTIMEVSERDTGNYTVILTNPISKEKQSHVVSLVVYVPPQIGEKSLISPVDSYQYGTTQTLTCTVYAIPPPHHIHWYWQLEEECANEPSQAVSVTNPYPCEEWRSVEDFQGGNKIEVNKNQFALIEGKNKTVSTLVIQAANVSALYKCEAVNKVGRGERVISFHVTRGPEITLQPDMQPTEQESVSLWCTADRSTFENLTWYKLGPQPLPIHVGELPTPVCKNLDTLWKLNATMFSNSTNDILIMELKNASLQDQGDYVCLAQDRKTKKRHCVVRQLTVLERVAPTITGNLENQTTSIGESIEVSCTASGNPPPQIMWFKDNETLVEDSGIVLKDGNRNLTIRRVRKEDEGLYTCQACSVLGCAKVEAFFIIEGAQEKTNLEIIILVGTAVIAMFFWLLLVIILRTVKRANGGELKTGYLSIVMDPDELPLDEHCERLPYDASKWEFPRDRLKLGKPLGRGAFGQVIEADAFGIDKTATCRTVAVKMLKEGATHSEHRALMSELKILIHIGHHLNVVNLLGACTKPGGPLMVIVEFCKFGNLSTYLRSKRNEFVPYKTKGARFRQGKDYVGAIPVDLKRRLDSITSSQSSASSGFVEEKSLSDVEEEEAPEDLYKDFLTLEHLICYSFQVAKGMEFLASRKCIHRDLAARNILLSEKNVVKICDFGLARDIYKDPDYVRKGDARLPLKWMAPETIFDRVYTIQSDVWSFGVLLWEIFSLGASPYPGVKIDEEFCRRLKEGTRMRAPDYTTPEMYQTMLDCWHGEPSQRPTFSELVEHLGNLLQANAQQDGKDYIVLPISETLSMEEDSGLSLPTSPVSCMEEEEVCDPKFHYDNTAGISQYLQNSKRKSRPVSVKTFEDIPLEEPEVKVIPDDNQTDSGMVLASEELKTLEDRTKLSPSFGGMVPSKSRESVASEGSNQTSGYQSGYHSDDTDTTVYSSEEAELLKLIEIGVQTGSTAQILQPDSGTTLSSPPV
Procedure: As predicted by molecular modeling, insertion of the protecting group DMNB should diminish the inhibitory activity both of the maleimide 1 and the carbazole 3. […] The IC50 values towards VEGFR-2 were determined (Table 1).
The VEGFR-2 IC50 profile for 1, 3, 4 and 5 was determined using VEGFR-2 protein kinase by a radiometric ^33PanQinase® assay. […] Prior to testing, the compounds were dissolved to prepare 1 × 10^−2 M stock solutions in 100% DMSO. The final DMSO concentration in the reaction cocktails was 1% in all cases. Analyses were performed by ProQinase (Freiburg, Germany).

[2] = photoactivation (uncaging) at 365 nm in DMSO (HPLC, LC-MS); format: physicochemical; conditions: 1 mM in DMSO, 5.4 W, up to 10 min
Text: A further prerequisite for an application of caged prodrugs is a rapid and quantitative release of active parent compounds by irradiation. To examine this, we investigated the uncaging of 4 and 5 induced by irradiation at 365 nm with 5.4 W (Figure 5). […] Initially released maleimide 1 is converted to the intermediate 2 by proceeding irradiation, which is in line to the previously described instability of 1, (compare Figure 4a). […] Due to UV stability of 3 no other by-products could be detected.
After 0.25, 0.5, 0.75, 1, 2, 3, 5 and 10 min of irradiation samples were taken. Aliquots were diluted 1:5 with methanol and subsequently analyzed by HPLC. Additional to retention time LC-MS was used to proof identity.

PC-3 cells [3] = test: cellular uptake by fluorescence microscopy (cell staining); format: cell-based; conditions: live PC-3 cells, 10 µM, 30 min, autofluorescence
Procedure: Next, we investigated the cellular bioavailability of the caged prodrugs. For this purpose, we used the autofluorescence of the carbazole 3 and its caged derivative 5. The emission spectra of both compounds are shown in the Supplementary Figure S6. The fluorescence microscopy was used to explore the uptake of the compounds into the cells. Live PC-3 cells were stained with 10 µM solutions of 3 or 5, and then fixed with formalin. Subsequently, the cell nuclei were counterstained with 1 µg/mL DAPI.
PC-3 cells were stained with the carbazole 3 and its caged derivative 5. For this purpose, the cells were seeded to give 15,000 cells in 50 µL per well into 96-well half area microplate (Ref.: 675986, Greiner bio-one, Kremsmünster, Austria). The plate was incubated for 48 h at 37 °C in a humidified atmosphere with 5% CO2. Compounds 3 and 5 were dissolved in DMEM:Hams F12 (1:1) medium with 5% FCS and added to the cells to give the endconcentration of 10 µM, respectively. The cells were incubated with the compounds for 30 min at 37 °C. After that, the cells were washed twice with PBS and fixed with 3.3% formalin for 15 min. […] After 30 min incubation at 37 °C, the cells were washed with PBS and the fluorescence images were taken at the ImageXpress® Micro XL (Molecular Devices, Sunnyvale CA, USA). […]

[4] = Homo sapiens, PC-3, light or radiation study, irradiated at 365 nm, 5 min, 1.1 kW/m^2, cell growth after 48 h, read-out: GI50 after Irradiation
[5] = irradiated at 365 nm, 5 min, 1.1 kW/m^2, cell growth after 48 h, read-out: GI50 after Irradiation

melting point [°C] | IC50 (VEGFR-2) [µM] | photoinduced release of parent compound (uncaging) [2] | GI50 (PC-3 cells [1]; [4]) [µM] | GI50 without Irradiation (PC-3 cells [1]; no UV irradiation, cell growth after 48 h) | GI50 (PC-3 cells [1]; Homo sapiens, PC-3, light or radiation study, 48 h, no UV irradiation, cell growth after 48 h, read-out: GI50 without Irradiation) [µM] | GI50 (PC-3 cells [1]; [5]) [µM] | Compound | antiproliferative effect after UV irradiation (PC-3 cells [1]; 5 min) | antiproliferative effect without UV irradiation (PC-3 cells [1]; no UV irradiation, 48 h) | concentration at which the cleaved PPG shows toxicity relative to efficacious concentration of the irradiated compound (PC-3 cells [1]; after irradiation, PPG from DMNB-Boc-Ala) | TGI (total growth inhibition) mark (PC-3 cells [1]; 48 h) | cellular uptake (PC-3 cells [3])
 |  |  |  |  |  |  | C[C@H](NC(=O)OC(C)(C)C)C(=O)O [Boc-Ala, reference compound] | does not have any effect on cellular growth | do not show any; also recorded: did not show any antiproliferative effects |  |  | 
205 | 4.59 | cleavage of the DMNB PPG | 0.1 | not reached |  |  | COc1cc(CN2C(=O)C(c3cc(OC)c(OC)c(OC)c3)=C(c3c[nH]c4ccccc34)C2=O)c([N+](=O)[O-])cc1OC [Compound 4, 1-(4,5-Dimethoxy-2-nitrobenzyl)-3-(1H-indol-3-yl)-4-(3,4,5-trimethoxyphenyl)-1H-pyrrole-2,5-dione] |  | do not show any; also recorded: very marginal antiproliferative activity | approximately 500 fold | not reached even at high concentrations | 
283 | 44.8 | rapidly released | 0.22 |  | 34.6 | 0.2 | COc1cc(CN2C(=O)c3c(c4c5ccccc5[nH]c4c4c(OC)c(OC)c(OC)cc34)C2=O)c([N+](=O)[O-])cc1OC [Compound 5, 2-(4,5-Dimethoxy-2-nitrobenzyl)-5,6,7-trimethoxybenzo[a]pyrrolo[3,4-c]carbazole-1,3(2H,8H)-dione] |  |  |  | not reached even at high concentrations | taken up into the cells, but not within the cell nuclei
 |  |  |  |  |  | 50.3 | COc1cc(COC(=O)[C@H](C)NC(=O)OC(C)(C)C)c([N+](=O)[O-])cc1OC [DMNB-Boc-Ala, reference compound] | distinct antiproliferative activity | do not show any; also recorded: did not show any antiproliferative effects |  |  | 
